The values below come from PMC10866962, “Molecular docking of bioactive compounds extracted and purified from selected medicinal plant species against covid-19 proteins and in vitro evaluation” (Scientific Reports, 2024).

≈ marks a conversion by molar mass, not a printed value.

Data set [1] in a line: DPPH free radical scavenging assay. As to conditions: for IC50 in DPPH assay: calculated by linear regression equation; for antioxidant potential (free radical scavenging) in DPPH assay: at 200 µg/mL.
Protocol: The DPPH assay was performed according to the protocol of Ghasemi et al.[40] with little modifications. For DPPH solution, 3 mg of DPPH powder was dissolved in 100 mL methanol. […] Different serial dilutions (25, 50, 100, and 200 μg/mL) were prepared. The 3 mL DPPH methanolic solution was added to 400 μL compounds methanolic solution. The mixture was continuously shaken and stored at room temperature under shade for exactly 30 min. The absorbance of reaction mixture was measured at 515 nm spectrophotometrically. […] The experiment was repeated three times and percentage inhibition was calculated as follows.
A further data set relates to Klebsiella pneumoniae. Nature of the data set: Agar well diffusion method. As to conditions: for zone of inhibition: compound solution 0.6 mg/mL, 40 μL per well, 24 h at 37 °C; for zone of inhibition at 600 µg/mL: 24 h.
A short description of data set [2]: ABTS free radical scavenging assay. Further details: IC50 values in ABTS assay (Table 2): unit not given beside the values. The settings on record: for free radical scavenging potential in ABTS assay: at 200 µg/mL; for IC50 value in ABTS assay / IC50 values in ABTS assay (Table 2): calculated by linear regression equation; for IC50 values in ABTS assay (Table 2): unit not given.

The next data set has as its system Salmonella. Nature of the data set: Agar well diffusion method. The class given is cell-based. The settings on record: compound solution 0.6 mg/mL, 40 μL per well, 24 h at 37 °C. The procedure: (§1) Allowed it to solidify for 15 min. […] The experiment was run in triplicates.
The test system of a further data set is P. aeruginosa. Nature of the data set: Agar well diffusion method. As to conditions: compound solution 0.6 mg/mL, 40 μL per well, 24 h at 37 °C. Format: cell-based. The method, then: as §1
Another data set concerns brine shrimp nauplii. Nature of the data set: Brine shrimp lethality assay (BSLA). The settings on record: 24 h; for mortality at 200 µg/mL: read-out: mortality rate / cytotoxic effect in brine shrimp lethality assay; for mortality rate / cytotoxic effect in brine shrimp lethality assay: at highest 200 µg/mL concentration.
A further data set concerns E. coli. Nature of the data set: Agar well diffusion method. Format: cell-based, Escherichia coli. The settings on record: compound solution 0.6 mg/mL, 40 μL per well, 24 h at 37 °C. The method, then:
as §1

A further data set has as its system Xanthomonas. Nature of the data set: Agar well diffusion method. As to conditions: for zone of inhibition: compound solution 0.6 mg/mL, 40 μL per well, 24 h at 37 °C. Format: cell-based.
A further data set relates to S. aureus. Nature of the data set: Agar well diffusion method. Format: cell-based. As to conditions: for zone of inhibition: S. aureus, compound solution 0.6 mg/mL, 40 μL per well, 24 h at 37 °C. The method, then:
as §1

Protocol for Klebsiella pneumoniae: (§2) Antibacterial activity of compounds was determined by agar well diffusion method[42]. Antibacterial activity of different compounds was tested against seven clinical pathogens (Klebsiella pneumonia, Escherichia coli, Xanthomonas, S. aureus, Salmonella, P. aeruginosa and S. epidermitis). The nutrient agar medium was prepared by dissolving 6 g agar nutrient powder in 250 mL distilled water. The media was autoclaved and poured into pre-labeled petri plates under sterile condition. Then rinsed these plates with bacterial suspension before solidification. Allowed it to solidify for 15 min. Compound solution of 0.6 mg/mL was used. Cefixime with 1 mg/1 mL was used as positive control whereas DMSO was used as negative control. After solidification made wells of 6 mm using sterile cork borer. Each well was sealed with 20 μL of agar. After sealing 40 μL of each compound solution was added in well. The petri plates were sealed by para-film and kept in incubator for 24 h at 37 °C. The experiment was run in triplicates. The zone of inhibition of bacterial growth was measured with scale in mm.
Protocol for Xanthomonas: as §2

Consider “Quercitin-3-O rhamnoside [Quercitin-3-O-rhamnoside]”, for which the “IC50 in DPPH assay” value in [1] was 185.27 µg/mL; in [1] (listed as Quercetin-3-O- rahmnoside), 185.3 µg/mL. Moreover, the zone of inhibition in the data set with Klebsiella pneumoniae is listed as 22 mm.

In the case of `O=c1c2cc(O)c(O)cc2oc2cc(O)c([C@@H]3O[C@H](CO)[C@@H](O)[C@H](O)[C@H]3O)c(O)c12` [Mangiferrin], the “free radical scavenging potential in ABTS assay” value in [2] came to 73%. In addition, in data set [2], the “IC50 value in ABTS assay” value is reported as 110.33 µg/mL (≈ 261 µM). Moreover, the “IC50 values in ABTS assay (Table 2)” value in [2] is recorded as 110.3. For the same compound, the zone of inhibition at 600 µg/mL was found to be 28 mm in the data set on Salmonella, 10 mm in the data set with P. aeruginosa (Pseudomonas aeruginosa), 32 mm in the data set with Klebsiella pneumoniae and 15 mm in the data set on E. coli (Escherichia coli). Moreover, the “IC50 in DPPH assay” value in data set [1] was 110.4 µg/mL (≈ 261 µM). Also, in the data set on brine shrimp nauplii, the mortality at 200 µg/mL worked out at 50%.

Take `O=c1c2ccccc2nc2n1CC[C@@H]2O` [PH-HM 17, vasicinone]: in data set [2], the “IC50 values in ABTS assay (Table 2)” value is reported as 101.6. Also, in [1], the “IC50 in DPPH assay” value was 124.9 µg/mL (≈ 618 µM). In the data set on Xanthomonas, this compound had a zone of inhibition of 22 mm.

Regarding `O=c1c(O[C@@H]2O[C@H](CO)[C@@H](O)[C@H](O)[C@H]2O)c(-c2ccc(O)cc2)oc2cc(O)cc(O)c12` [Astragalin], in data set [2], the “free radical scavenging potential in ABTS assay” value was determined as 78% and the “IC50 values in ABTS assay (Table 2)” value is 49.41. The “IC50 in DPPH assay” value in data set [1] is on record as 100.9 µg/mL (≈ 225 µM). In addition, the mortality at 200 µg/mL in the data set with brine shrimp nauplii was 55%. This compound gave a zone of inhibition at 600 µg/mL in the data set with Klebsiella pneumoniae of 26 mm.

As to `O=C(/C=C/c1ccc(O)cc1)OC[C@H]1O[C@@H](Oc2c(-c3ccc(O)cc3)oc3cc(O)cc(O)c3c2=O)[C@H](O)[C@@H](O)[C@@H]1O` [Tiliroside], in data set [2], the “free radical scavenging potential in ABTS assay” value was determined as 70%, the “IC50 value in ABTS assay” value is reported as 101.64 µg/mL (≈ 171 µM) and the “IC50 values in ABTS assay (Table 2)” value is listed as 67.53. Moreover, in data set [1], the “antioxidant potential (free radical scavenging) in DPPH assay” value was determined as 77.77% and the “IC50 in DPPH assay” value is recorded as 78.77 µg/mL (≈ 132 µM). The “IC50 in DPPH assay” value in [1] (listed as tiliroside) is listed as 78.77 µg/mL (≈ 132 µM). For the same compound, in the data set with brine shrimp nauplii, the “LD50 value in brine shrimp lethality assay” value is listed as 73.59 µg/mL and the mortality at 200 µg/mL is 95%. This compound also gave a zone of inhibition at 600 µg/mL in the data set on Klebsiella pneumoniae of 24 mm.

As for `O=c1c2cc(O)c(O)cc2oc2c([C@@H]3O[C@H](CO)[C@@H](O)[C@H](O)[C@H]3O)c(O)cc(O)c12` [Isomangiferrin], in data set [2], the “free radical scavenging potential in ABTS assay” value is listed as 62%, the “IC50 value in ABTS assay” value was 124.19 µg/mL (≈ 294 µM) and the “IC50 values in ABTS assay (Table 2)” value is 124.2. Also, in the data set with S. aureus, the zone of inhibition amounted to 32 mm. The zone of inhibition with P. aeruginosa is on record as 5 mm. Moreover, in data set [1], the “antioxidant potential (free radical scavenging) in DPPH assay” value came to 78.32% and the “IC50 in DPPH assay” value is recorded as 93.86 µg/mL (≈ 222 µM). In addition, the “IC50 in DPPH assay” value in data set [1] (listed as isomangiferrin) is reported as 93.85 µg/mL (≈ 222 µM). Besides, in the data set on brine shrimp nauplii, the “mortality rate / cytotoxic effect in brine shrimp lethality assay” value was found to be 55%. Further, in the data set with Klebsiella pneumoniae, the zone of inhibition is recorded as 28 mm.

As to `O=C(c1ccc(O)cc1)c1c(O)cc(O)c([C@@H]2O[C@H](CO)[C@@H](O)[C@H](O)[C@H]2O)c1O` [Irriflophenone-3-C-β-D-glucopyranoside], in [2], the “free radical scavenging potential in ABTS assay” value is listed as 71%. The “IC50 value in ABTS assay” value in [2] was 112.63 µg/mL (≈ 276 µM). In data set [2], the “IC50 values in ABTS assay (Table 2)” value is listed as 112.6. Further, the zone of inhibition in the data set with Salmonella came to 31 mm; with S. aureus, 28 mm; in the data set with P. aeruginosa, 8 mm; with Klebsiella pneumoniae, 30 mm; with Xanthomonas, 19 mm; in the data set on E. coli it was 34 mm. In data set [1], the “IC50 in DPPH assay” value was 125 µg/mL (≈ 306 µM). The “mortality rate / cytotoxic effect in brine shrimp lethality assay” value with brine shrimp nauplii turned out to be 65%.

On to `O[C@H]1CCN2Cc3ccccc3N=C12` [Vasicine], for which, in data set [2], the “free radical scavenging potential in ABTS assay” value is recorded as 69%, the “IC50 value in ABTS assay” value is recorded as 114.82 µg/mL (≈ 610 µM) and the “IC50 values in ABTS assay (Table 2)” value is 114.8. Besides, in the data set with S. aureus (Staphylococcus aureus, 24 h), the zone of inhibition at 600 µg/mL was determined as 22 mm. The “IC50 in DPPH assay” value in [1] was 137.7 µg/mL (≈ 732 µM). The mortality at 200 µg/mL with brine shrimp nauplii was determined as 55%.

`COc1ccc2c3c([nH]c2c1)C(C)=NCC3` [Harmaline]: in data set [2], the “free radical scavenging potential in ABTS assay” value is reported as 80.71%, the “IC50 value in ABTS assay” value was 15.79 µg/mL (≈ 73.7 µM) and the “IC50 values in ABTS assay (Table 2)” value is recorded as 15.79. In addition, the “IC50 in DPPH assay” value in [1] was 94.84 µg/mL (≈ 443 µM). Also, in the data set with brine shrimp nauplii, the mortality at 200 µg/mL worked out at 80%. In the data set on Xanthomonas (24 h), the zone of inhibition at 600 µg/mL was 23 mm.

Turning to `O=C1O[C@H]([C@@H](O)CO)C(O)=C1O` [Ascorbic acid, reference compound], in [2], the “free radical scavenging potential in ABTS assay” value came out at 90%, the “IC50 value in ABTS assay” value is on record as 14.77 µg/mL (≈ 83.9 µM) and the “IC50 values in ABTS assay (Table 2)” value is 14.77. Further, in data set [1], the “IC50 in DPPH assay” value is listed as 97.065 µg/mL (≈ 551 µM).

As for `CN1CCC[C@H]1c1cccnc1` [Nicotine, reference compound], in the data set on brine shrimp nauplii, the “LD50 value in brine shrimp lethality assay” value is 30.69 µg/mL and the mortality at 200 µg/mL was determined as 100%.

Take `COc1ccc2c(c1)[nH]c1c(C)nccc12` [Harmine]: the mortality at 200 µg/mL with brine shrimp nauplii was 65%.
